The record followed here is patent publication US9737545B2 (MERCK SHARP & DOHME CORP., priority 2013, dated 2017).

pIC50: −log10 of the molar value.

The target of the experiment is T1, wildtype HIV-1 protease (Human immunodeficiency virus type 1 group M subtype B, UniProt P04585).
T1 construct: preincubated with the HIV-1 protease (wild type) enzyme in assay buffer; made in house; host or cells: Escherichia coli
Description: Assay for Inhibition of Microbial Expressed HIV Protease (Pepcleav). The format is biochemical. Here is the method: Assay for Inhibition of Microbial Expressed HIV Protease (“Pepcleav”)
Studies of the inhibition of the wildtype HIV-1 protease (which was expressed in Escherichia coli) were carried out with a peptide substrate [Val-Ser-Gln-Asn-(βnaphthyl)Ala-Pro-Ile-Val (SEQ ID NO: 1)]. The inhibitor was first preincubated with the HIV-1 protease (wild type) enzyme in assay buffer (50 mM sodium acetate, pH 5.5, 100 mM NaCl, and 0.1% BSA) for 30 minutes at room temperature. Substrate was added to 400 micromolar in a total volume of 20 microliters containing 20 picomolar HIV-1 protease (final) and the reaction was incubated for 1 hour at 30° C. The reaction was quenched with the addition of formic acid and indinavir to 0.012% and 150 nM final concentrations, respectively. The product formation was determined after separation of product and substrate on a Zorbax Eclipse XDB-C18 column connected to an API 4000 mass spectrometer (Applied Biosystems) with multiple reaction monitoring (transitions were 644.5/428.9 and 615.4/422.2 (M1/M3) for product and indinavir respectively). The extent of inhibition of the reaction was determined from the peak area of the products. Analysis of the products, independently synthesized, provided quantitation standards and confirmation of the product composition.
One may read the pIC50 as −log10 of the IC50, conventionally taken in molar units. Turning to `COC(=O)N[C@H](C(=O)Nc1ccccc1CC[C@@H]1CN[C@H](c2nc3ccc(C#N)cc3[nH]2)CO1)C(c1ccccc1)c1ccccc1` [Example 10, methyl N-[(1S)-1-benzhydryl-2-[[2-[2-[(2R,5R)-5-(6-cyano-1H-benzimidazol-2-yl)morpholin-2-yl]ethyl]phenyl]amino]-2-oxo-ethyl]carbamate], the pIC50 was 8.80.

Regarding `COC(=O)N[C@H](C(=O)Nc1ccccc1CC[C@@H]1CN[C@H](c2ncc[nH]2)CO1)C(c1ccccc1)c1ccccc1` [Example 86], the negative logarithm of the IC50 (pIC50) is 8.74.

As for `COC(=O)N[C@H](C(=O)Nc1ccccc1CC[C@@H]1CN[C@H](c2cc3cnccc3[nH]2)CO1)C(c1ccccc1)c1ccccc1` [Example 61, Nα-(methoxycarbonyl)-β-phenyl-N-(2-{2-[(2R,5R)-5-(1H-pyrrolo[3,2-c]pyridin-2-yl)morpholin-2-yl]ethyl}phenyl)-L-phenylalaninamide], the pIC50 is 6.26.

Compound `N[C@@H](Cc1ccccc1Cl)C(=O)Nc1cccc(F)c1CC[C@@H]1CN[C@H](c2nc3ccccc3[nH]2)CO1` [Example 102, N-(2-{2-[(2R,5R)-5-(1H-benzimidazol-2-yl)morpholin-2-yl]ethyl}-3-fluorophenyl)-2-chloro-L-phenylalaninamide] had a negative logarithm of the IC50 (pIC50) of 7.77.

On to `Cc1cc2nc([C@@H]3CO[C@H](CCc4cc[nH]c(=O)c4NC(=O)[C@@H](N)C(c4ccccc4)c4ccccc4)CN3)[nH]c2cc1C` [Example 34, N-(4-{2-[(2R,5R)-5-(5,6-dimethyl-1H-benzimidazol-2-yl)morpholin-2-yl]ethyl}-2-oxo-1,2-dihydropyridin-3-yl)-β-phenyl-L-phenylalaninamide], for which the pIC50 is 9.78.

Compound `COC(=O)N[C@H](C(=O)Nc1ccccc1CC[C@@H]1CN[C@H](c2csc(C)n2)CO1)C(c1ccccc1)c1ccccc1` [Example 83] showed a pIC50 of 7.05.

On to `COC(=O)N[C@H](C(=O)Nc1ccccc1CC[C@@H]1CN[C@H](c2nc3cc(F)c(Cl)cc3[nH]2)CO1)C(c1ccccc1)c1ccccc1` [Example 27, N-(2-{2-[(2R,5R)-5-(6-chloro-5-fluoro-1H-benzimidazol-2-yl)morpholin-2-yl]ethyl}phenyl)-Na-(methoxycarbonyl)-b-phenyl-L-phenylalaninamide], for which the pIC50 was 9.18.

Take `COC(=O)N[C@H](C(=O)Nc1ccccc1CC[C@@H]1CN[C@H](C#N)CO1)C(c1ccccc1)c1ccccc1` [Example 37, methyl [(1S)-2-[(2-{2-[(2R,5R)-5-cyanomorpholin-2-yl]ethyl}phenyl)amino]-1-(diphenylmethyl)-2-oxoethyl]carbamate]: the pIC50 is 6.61.

For `COC(=O)N[C@H](C(=O)Nc1ccccc1CC[C@@H]1CN[C@H](c2nc3ccncc3[nH]2)CO1)C(c1ccccc1)c1ccccc1` [Example 5, methyl N-[(1S)-1-benzhydryl-2-[[2-[2-[(2R,5R)-5-(3H-imidazo[4,5-c]pyridin-2-yl)morpholin-2-yl]ethyl]phenyl]amino]-2-oxo-ethyl]carbamate], the pIC50 is 8.13.

Compound `COC(=O)N[C@H](C(=O)Nc1ccccc1CC[C@@H]1CN[C@H](c2nc3cccc(Cl)c3[nH]2)CO1)C(c1ccccc1)c1ccccc1` [Example 13, methyl N-[(1S)-1-benzhydryl-2-[[2-[2-[(2R,5R)-5-(7-chloro-1H-benzimidazol-2-yl)morpholin-2-yl]ethyl]phenyl]amino]-2-oxo-ethyl]carbamate] showed a pIC50 of 9.86. Against the preceding compound, the pIC50 is 1.73 log units higher.

In the case of `COC(=O)N[C@H](C(=O)Nc1ccccc1CC[C@@H]1CN[C@H](c2nc3c(Br)cc(C)cc3[nH]2)CO1)C(c1ccccc1)c1ccccc1` [Example 19, methyl N-[(1S)-1-benzhydryl-2-[[2-[2-[(2R,5R)-5-(4-bromo-6-methyl-1H-benzimidazol-2-yl)morpholin-2-yl]ethyl]phenyl]amino]-2-oxo-ethyl]carbamate], the pIC50 was 9.24. Against the preceding compound, the pIC50 is 0.62 log units lower.

The compound `COC(=O)N[C@H](C(=O)Nc1ccccc1CC[C@@H]1CN[C@H](c2nc3c(C)ccnc3[nH]2)CO1)C(c1ccccc1)c1ccccc1` [Example 23, methyl N-[(1S)-1-benzhydryl-2-[[2-[2-[(2R,5R)-5-(7-methyl-3H-imidazo[4,5-b]pyridin-2-yl)morpholin-2-yl]ethyl]phenyl]amino]-2-oxo-ethyl]carbamate] showed a pIC50 of 8.50.

The compound `COC(=O)N[C@H](C(=O)Nc1ccccc1CC[C@@H]1CN[C@H](c2nc3ccc(C)cc3[nH]2)CO1)C(c1ccccc1)c1ccccc1` [Example 4, methyl N-[(1S)-1-benzhydryl-2-[[2-[2-[(2R,5R)-5-(6-methyl-1H-benzimidazol-2-yl)morpholin-2-yl]ethyl]phenyl]amino]-2-oxo-ethyl]carbamate] gave a pIC50 of 10.03.

In turn, `COC(=O)N[C@H](C(=O)Nc1ccccc1CC[C@@H]1CN[C@H](c2nc3cc(C)c(C)cc3[nH]2)CO1)C(c1ccccc1)c1ccccc1` [Example 9, methyl N-[(1S)-1-benzhydryl-2-[[2-[2-[(2R,5R)-5-(5,6-dimethyl-1H-benzimidazol-2-yl)morpholin-2-yl]ethyl]phenyl]amino]-2-oxo-ethyl]carbamate] had a pIC50 of 10.29.

As for `COC(=O)N[C@H](C(=O)Nc1cncc(F)c1CC[C@@H]1CN[C@H](c2nc3cc(C)c(C)cc3[nH]2)CO1)C(c1ccc(F)cc1)c1ccc(F)cc1` [Example 95, N-(4-{2-[(2R,5R)-5-(5,6-dimethyl-1H-benzimidazol-2-yl)morpholin-2-yl]ethyl}-5-fluoropyridin-3-yl)-4-fluoro-β-(4-fluorophenyl)-Nalpha-(methoxycarbonyl)-L-phenylalaninamide], the pIC50 was 10.52.

For the compound `COC(=O)N[C@H](C(=O)Nc1ccccc1CC[C@@H]1CN[C@H](c2nc3ccc(F)cc3[nH]2)CO1)C(c1ccccc1)c1ccccc1` [Example 18, methyl N-[(1S)-1-benzhydryl-2-[[2-[2-[(2R,5R)-5-(6-fluoro-1H-benzimidazol-2-yl)morpholin-2-yl]ethyl]phenyl]amino]-2-oxo-ethyl]carbamate], the pIC50 was 9.90.

With `COC(=O)N[C@H](C(=O)Nc1ccccc1CC[C@@H]1CN[C@H](c2nnc(C)[nH]2)CO1)C(c1ccccc1)c1ccccc1` [Example 36, Nα-(methoxycarbonyl)-N-[2-(2-{(2R,5R)-5-[(5-methyl-4H-1,2,4-triazol-3-yl)]morpholin-2-yl}ethyl)phenyl]-β-phenyl-L-phenylalaninamide], the negative-log IC50 (pIC50) was 7.78.

Compound `COC(=O)N[C@H](C(=O)Nc1ccccc1CC[C@@H]1CN[C@H](c2nc3cc(Cl)c(Cl)cc3[nH]2)CO1)C(c1ccccc1)c1ccccc1` [Example 85] had a pIC50 of 9.40.

Compound `COC(=O)N[C@H](C(=O)Nc1ccccc1CC[C@@H]1CN[C@H](c2ncon2)CO1)C(c1ccccc1)c1ccccc1` [Example 41, methyl {(1S)-1-(diphenylmethyl)-2-[(2-{2-[(2R,5R)-5-(1,2,4-oxadiazol-3-yl)morpholin-2-yl]ethyl}phenyl)amino]-2-oxoethyl}carbamate] had a pIC50 of 6.52.

In turn, `COC(=O)N[C@H](C(=O)Nc1ccccc1CC[C@@H]1CN[C@H](c2cc3c(Cl)cccc3[nH]2)CO1)C(c1ccccc1)c1ccccc1` [Example 60, N-(2-{2-[(2R,5R)-5-(4-chloro-1H-indol-2-yl)morpholin-2-yl]ethyl}phenyl)-Nα-(methoxycarbonyl)-β-phenyl-L-phenylalaninamide] showed a pIC50 of 7.05.

With `COC(=O)N[C@H](C(=O)Nc1ccccc1CC[C@@H]1CN[C@H](c2cc3cccnc3[nH]2)CO1)C(c1ccccc1)c1ccccc1` [Example 62, Nα-(methoxycarbonyl)-β-phenyl-N-(2-{2-[(2R,5R)-5-(1H-pyrrolo[2,3-b]pyridin-2-yl)morpholin-2-yl]ethyl}phenyl)-L-phenylalaninamide], the pIC50 is 6.81.

For `COC(=O)N[C@H](C(=O)Nc1ccccc1CC[C@@H]1CN[C@H](c2nc3ccc(Br)cc3[nH]2)CO1)C(c1ccccc1)c1ccccc1` [Example 11, methyl N-[(1S)-1-benzhydryl-2-[[2-[2-[(2R,5R)-5-(6-bromo-1H-benzimidazol-2-yl)morpholin-2-yl]ethyl]phenyl]amino]-2-oxo-ethyl]carbamate], the pIC50 is 9.39.

Regarding `O=C(CC(c1ccc(F)cc1)c1ccc(F)cc1)Nc1cccc(F)c1CC[C@@H]1CN[C@H](c2nc3ccccc3[nH]2)CO1` [Example 97, N-(2-{2-[(2R,5R)-5-(1H-benzimidazol-2-yl)morpholin-2-yl]ethyl}-3-fluorophenyl)-3,3-bis(4-fluorophenyl) propanamide], the pIC50 was 10.40.

Regarding `COC(=O)N[C@H](C(=O)Nc1ccccc1CC[C@@H]1CN[C@H](c2nnc(Cc3ccccc3)o2)CO1)C(c1ccccc1)c1ccccc1` [Example 78], the pIC50 is 7.21.

`COC(=O)N[C@H](C(=O)Nc1ccccc1CC[C@@H]1CN[C@H](c2nnco2)CO1)C(c1ccccc1)c1ccccc1` [Example 82] had a pIC50 of 6.55.

`COC(=O)N[C@H](C(=O)Nc1ccccc1CC[C@@H]1CN[C@H](c2nnc(C)o2)CO1)C(c1ccccc1)c1ccccc1` [Example 80] had a pIC50 of 6.66.

As to `COC(=O)N[C@H](C(=O)Nc1ccccc1CC[C@@H]1CN[C@H](c2nnc(Cc3ccccc3)[nH]2)CO1)C(c1ccccc1)c1ccccc1` [Example 81], the pIC50 was 8.55.
